“And” between values parts separate entries of the source, which are not always exact repeats. Identical values can stand only once.
Assays:
[1] = tested on: CD4+ T cells; test: Tetramer-guided epitope mapping (TGEM): pMHCII tetramer staining of PBMC cultures stimulated with RV peptides; assay type: cell-based, human; details: one value per subject
Text: (§1) Peptide libraries consisting of 20mers with a 12 amino acid overlap were generated to span the VP1, VP2 and VP4 protein sequences of RV-A16, and VP1 and VP2 protein sequences of RV-A39 (UniprotKB accession # Q82122, Q5XLP5). […] Biologically relevant pMHCII complexes were identified by tetramer-guided epitope mapping (TGEM). This involved 2 steps: First, PBMC cultures established from subjects with known HLA-DR types were stimulated with RV peptide pools derived from VP1, VP2, or VP4, and then stained with pMHCII tetramer pools composed of HLA-DR molecules corresponding to those expressed in the test subject; Second, positive signals were de-convoluted by repeating and staining with single-peptide tetramers. Tetramers that gave strong positive signals (˜1% of total CD4+ T cells) in the single peptide-tetramer screen in more than one subject, were then re-tested for their ability to detect RV-specific CD4+ T cells in non-stimulated PBMCs (denoted as ex vivo analysis) in multiple subjects.
(§2) All experiments were performed in subjects expressing HLA-DR molecules corresponding to the selected tetramer. Precursor frequencies of circulating tetramer+ cells were then calculated by established methods. Tetramer+ cells were phenotyped for surface markers by staining PBMCs with PE-conjugated tetramers, labeling with anti-PE magnetic beads, enriching with an AutoMACS separator (Miltenyi Biotec, Auburn, Calif., USA), and then counterstaining for surface markers. A tetramer displaying an irrelevant peptide, GAD555-567, was used as a staining control. For simplicity, identified RV-A16 peptide epitopes were given a numerical designation.

[2] = tested on: RV-specific CD4+ T cells; test: Direct ex vivo pMHCII tetramer staining of non-stimulated PBMCs; assay type: cell-based, human; design: key to Validated: Y means validated; details: for Ex Vivo Frequency (# per 10^6 CD4): directly ex vivo, without culture, one value per subject; for Validated: reliable ex vivo signal
Text: as §1, §2

[3] = HLA allele 1*0404 tetramer, peptide-stimulated PBMC cultures
[4] = HLA allele 1*1501 tetramer, peptide-stimulated PBMC cultures
[5] = HLA allele 1*0701 tetramer, peptide-stimulated PBMC cultures
[6] = HLA allele 1*1101 tetramer, peptide-stimulated PBMC cultures
[7] = HLA allele 1*0101 tetramer, tetramer-positive CD4+ T cells in peptide-stimulated PBMC cultures
[8] = HLA allele 1*0401 tetramer, peptide-stimulated PBMC cultures
[9] = HLA allele 1*0301 tetramer, peptide-stimulated PBMC cultures

Sequence: AAKDGHIGHIVMQYMYVPPG [VP1P17]
- In Vitro Frequency (% CD4) [1, 3]: 2.00 % CD4 and 2.99 % CD4 and 2.60 % CD4
- Ex Vivo Frequency (# per 10^6 CD4) ([2]; HLA allele 1*0404 tetramer): 112 # per 10^6 CD4

Sequence: ASKFHQGTLLVVMIPEHQLA [VP2P15]
- In Vitro Frequency (% CD4) [1, 3]: 0.98 % CD4 and 0.81 % CD4
- In Vitro Frequency (% CD4) [1, 4]: 0.55 % CD4 and 0.53 % CD4

Sequence: EITMVPSVAAKDGHIGHIVM [VP1P16]
- In Vitro Frequency (% CD4) [1, 5]: 0.60 % CD4 and 0 % CD4

Sequence: EQLHKVKVVTRIYHKAKHTK [VP1P29]
- In Vitro Frequency (% CD4) [1, 6]: 3.35 % CD4 and 2.79 % CD4
- Ex Vivo Frequency (# per 10^6 CD4) ([2]; HLA allele 1*1101 tetramer): 0 # per 10^6 CD4 (2×) and 3 # per 10^6 CD4

Sequence: FTYARFDSEITMVPSVAAKD [VP1P15]
- In Vitro Frequency (% CD4) [1, 5]: 0.26 % CD4 and 0 % CD4

Sequence: FWQHGQPFPRFSLPFLSIAS [VP1P22]
- In Vitro Frequency (% CD4) ([1]; HLA allele DRB5 tetramer, peptide-stimulated PBMC cultures): 3.52 % CD4 and 0.74 % CD4
- Ex Vivo Frequency (# per 10^6 CD4) ([2]; HLA allele DRB5 tetramer): 10 # per 10^6 CD4 and 4 # per 10^6 CD4

Sequence: GIFGENMFYHFLGRSGYTVH [VP2P12]
- In Vitro Frequency (% CD4) [1, 7]: 0.63 % CD4 and 0 % CD4 and 1.23 % CD4
- In Vitro Frequency (% CD4) [1, 6]: 1.55 % CD4 and 0 % CD4 and 0.38 % CD4

Sequence: HIVMQYMYVPPGAPIPTTRN [VP1P18]
- In Vitro Frequency (% CD4) [1, 7]: 3.51 % CD4 and 0 % CD4 (2×)
- In Vitro Frequency (% CD4) [1, 8]: 0 % CD4 and 0.65 % CD4
- In Vitro Frequency (% CD4) [1, 3]: 1.84 % CD4 and 4.22 % CD4 and 2.76 % CD4
- Ex Vivo Frequency (# per 10^6 CD4) ([2]; HLA allele 1*0401 tetramer): 2 # per 10^6 CD4
- Ex Vivo Frequency (# per 10^6 CD4) ([2]; HLA allele 1*0404 tetramer): 247 # per 10^6 CD4 and 10 # per 10^6 CD4 and 52 # per 10^6 CD4 and 5 # per 10^6 CD4
- Validated ([2]; HLA allele 1*0404 tetramer): Y

Sequence: ISNIVPITVSISPMCAEFSG [VP2P30]
- In Vitro Frequency (% CD4) [1, 4]: 0.46 % CD4 and 0 % CD4

Sequence: ITVSISPMCAEFSGARAKTV [VP2P31]
- In Vitro Frequency (% CD4) [1, 4]: 0.37 % CD4 and 0 % CD4

Sequence: LDSKMWNSTSKGWWWKLPDA [VP2P9]
- In Vitro Frequency (% CD4) [1, 6]: 0.22 % CD4 and 0 % CD4 (2×)

Sequence: LLGNLLIFPHQFINLRSNNS [VP2P23]
- In Vitro Frequency (% CD4) [1, 7]: 1.6 % CD4 and 3.19 % CD4 and 1.58 % CD4

Sequence: LLVVMIPEHQLATVNKGNVN [VP2P16]
- In Vitro Frequency (% CD4) [1, 4]: 0 % CD4 and 3 % CD4

Sequence: NEKQPSDDNWLNFDGTLLGN [VP2P21]
- In Vitro Frequency (% CD4) [1, 9]: 1.57 % CD4 and 0.87 % CD4
- In Vitro Frequency (% CD4) [1, 8]: 5.13 % CD4 and 0.89 % CD4
- In Vitro Frequency (% CD4) [1, 3]: 0 % CD4 and 0.65 % CD4
- Ex Vivo Frequency (# per 10^6 CD4) ([2]; HLA allele 1*0301 tetramer): 29 # per 10^6 CD4 and 4 # per 10^6 CD4 and 6 # per 10^6 CD4
- Validated ([2]; HLA allele 1*0301 tetramer): Y
- Ex Vivo Frequency (# per 10^6 CD4) ([2]; HLA allele 1*0401 tetramer): 9 # per 10^6 CD4 and 63 # per 10^6 CD4 and 3 # per 10^6 CD4
- Validated ([2]; HLA allele 1*0401 tetramer): Y

Sequence: NWLNFDGTLLGNLLIFPHQF [VP2P22]
- In Vitro Frequency (% CD4) [1, 7]: 0.35 % CD4 and 0 % CD4 (2×)
- In Vitro Frequency (% CD4) [1, 9]: 2.61 % CD4 and 0.75 % CD4
- In Vitro Frequency (% CD4) [1, 8]: 3.38 % CD4 and 0.89 % CD4
- In Vitro Frequency (% CD4) [1, 6]: 0 % CD4 (2×) and 1.31 % CD4
- Ex Vivo Frequency (# per 10^6 CD4) ([2]; HLA allele 1*0401 tetramer): 1 # per 10^6 CD4

Reference: patent publication US10363299B2, “Compositions and methods for preventing and treating rhinovirus infections” (priority 2015, dated 2019)
